Measured values: patent US20100256145A1, “USE OF KCNQ POTASSIUM CHANNEL OPENERS FOR REDUCING SYMPTOMS OF OR TREATING DISORDERS OR CONDITIONS WHEREIN THE DOPAMINERGIC SYSTEM IS DISRUPTED” (H. LUNDBECK A/S, priority 2007, published 2010)
Marks after values point to notes of the source that are not given here.

Key:
[1] = tested on: social behaviours in the rat Tetradic Encounter test; assay: Rat Tetradic Encounter test; conditions: for % of time Agonistic behaviour: sum of defensive and aggressive behaviour
[2] = tested on: social behaviours in the Mutual Resident Intruder rat test; assay: Mutual Resident Intruder rat test; conditions: for % of time Agonistic behaviour: sum of defensive and aggressive behaviour
[3] = tested on: choice of the large-but-delayed reward (impulsivity); assay: Rat T-maze procedure: large-but-delayed vs small-but-immediate reward; format: in vivo; conditions: juvenile Wistar rats; for % Choice of the large but delayed reward on Control sessions: placebo administered before control (pre-drug and post-drug) sessions of the same group
Protocol: Subjects. male Wistar AF rats (28-41 days old) (Centre d′Elevage René Janvier, France) were used. […] During the whole study, tap water was provided ad libitum. Food was restricted to 5-10 g/day/animal in order to maintain animals at 65-75% of their free feeding weight
Experimental procedure. The experiments were performed in two identical T-maze apparatus constructed from opaque grey plastic tubing and consisting of a starting runway (30 cm long) and two arms (35 cm long) each leading to a rectangular black plastic goal box (18 cm large, 30 cm wide, 10 cm high). Removable grey plastic guillotine doors could be inserted into the vertical clefts, situated at the entry of the starting runway and at each end of the arms. One of the goal-boxes (left or right, depending on the rats) was constantly provided with a large reward, the other with a small reward. Large and small rewards consisted, respectively, of 5 and 1 pellets (20 mg, Technical & Scientific Equipment GmbH, Germany). The pellets were placed in a translucent food-cup before each trial.
First phase: habituation. Animals were first subjected to two 5-min sessions of habituation. The rat was gently introduced in the starting runway, which then was closed with a guillotine door inserted in the cleft (referred to as c0 in FIG. 1). The animal was allowed to freely explore the apparatus and to eat food rewards placed in the food cups.
Second phase: pretraining. After a door was placed in the cleft c2 near each goal-box, the rat was introduced in the starting runway. When it entered one of the two arms, a door was inserted behind it in the cleft c1 near the choice area and the door placed in cleft c2 was removed. As soon as the animal entered the goal-box, the door was placed again in the cleft c2. The rat was removed from the goal-box as soon as the pellets were eaten (usually within less than 1 min). The animal was then returned to its home cage for an intertrial interval of 2 to 3 min. Each rat was submitted one to five times/day to five trials sessions in this procedure. Training was initiated when the rat selected the arm giving access to the large reward in more than 14 out of 15 trials.
Third phase: training. Rats underwent one to five times/day five trials training sessions during which a delay was introduced before access to the large reward. After a door was placed in the cleft c2 near each goal-box, the rat was introduced in the starting runway. When it entered one of the two arms, a second door was inserted behind it in the cleft c1 near the choice area, so that rat selecting the arm leading to the large reward could be detained in this arm for a period (referred to as the waiting delay) before having access to the reinforcement. Otherwise, if the animal selected the arm leading to the small reward, the door placed in the cleft c2 was immediately opened, allowing the animal to enter the goal-box. At the beginning of training, the waiting delay was 30 sec. Then, if the percentage of choices of the large and delayed reward remained high (i.e. ≧40%) for more than six sessions, it was increased to 45 sec, and if necessary to 60 sec, 90 sec and finally 120 sec. Drug testing began when the animal selected the large and delayed reward in two trials out of five (or less) in two consecutive sessions and in one trial out of five (or less) in the following session.
Drug testing was conducted over six consecutive test-sessions of five trials each, during which the access to the large reward was preceded by the waiting delay. Test sessions were: Two control pre-drug sessions: control pre-drug session 1 and control pre-drug session 2; Two drug sessions: drug session 1 and drug session 2; Two control post-drug sessions: control post-drug session 1 and control post-drug session 2.

[4] = 1 mg/kg s.c. 30 min before test
[5] = 5 mg/kg s.c. 30 min before test

C[C@H](N)Cc1ccccc1 [Amphetamine, D-amphetamine, reference compound]
% of time Aggressive behaviour ([1]; 0.5 mg/kg (positive control)): 0.1*** % of time | % of time Defensive behaviour ([1]; 0.5 mg/kg (positive control)): 1.2*** % of time | % of time Friendly behaviour ([1]; 0.5 mg/kg (positive control)): 17.3* % of time | % of time Non-social behaviour ([1]; 0.5 mg/kg (positive control)): 81.4*** % of time | % of time Agonistic behaviour ([1]; 0.5 mg/kg (positive control)): 1.4*** % of time | % of time Aggressive behaviour ([2]; 0.5 mg/kg (positive control)): 3.9*** % of time | % of time Defensive behaviour ([2]; 0.5 mg/kg (positive control)): 4.0*** % of time | % of time Friendly behaviour ([2]; 0.5 mg/kg (positive control)): 5.3 % of time | % of time Non-social behaviour ([2]; 0.5 mg/kg (positive control)): 86.8*** % of time | % of time Agonistic behaviour ([2]; 0.5 mg/kg (positive control)): 7.9*** % of time

CNCC[C@@H](Oc1ccccc1C)c1ccccc1 [Atomoxetine, reference compound]
% Choice of the large but delayed reward on Drug sessions ([3]; 1 mg/kg i.p. 30 min before the test): 40.0 ± 2.2 % | % Choice of the large but delayed reward on Control sessions [3]: 10.7 ± 2.3%

COc1cc(N2CCOCC2)cc(C)c1NC(=O)CC1CCCC1 [Compound 2]
% Choice of the large but delayed reward on Drug sessions ([3]; 1 mg/kg s.c. 30 min before the test): 33.3 ± 3.3 % | % Choice of the large but delayed reward on Control sessions [3]: 11.7 ± 2.5% | % of time Aggressive behaviour [1, 4]: 5.3 % of time | % of time Defensive behaviour [1, 4]: 7.2 % of time | % of time Friendly behaviour [1, 4]: 18.2* % of time | % of time Non-social behaviour [1, 4]: 69.3 % of time | % of time Agonistic behaviour [1, 4]: 12.5 % of time | % of time Aggressive behaviour [1, 5]: 0.4** % of time | % of time Defensive behaviour [1, 5]: 0.8*** % of time | % of time Friendly behaviour [1, 5]: 26.2 % of time | % of time Non-social behaviour [1, 5]: 72.7** % of time | % of time Agonistic behaviour [1, 5]: 1.2*** % of time | % of time Aggressive behaviour [2, 4]: 15.5 % of time | % of time Defensive behaviour [2, 4]: 17.3 % of time | % of time Friendly behaviour [2, 4]: 4.0 % of time | % of time Non-social behaviour [2, 4]: 63.1 % of time | % of time Agonistic behaviour [2, 4]: 32.8*** % of time | % of time Aggressive behaviour [2, 5]: 0.7*** % of time | % of time Defensive behaviour [2, 5]: 0.2*** % of time | % of time Friendly behaviour [2, 5]: 2.4 % of time | % of time Non-social behaviour [2, 5]: 96.6*** % of time | % of time Agonistic behaviour [2, 5]: 0.9*** % of time

Cc1cc(N2CCOCC2)nc(C)c1NC(=O)CC(C)(C)C [Compound 3, N-(2,4-dimethyl-6-morpholin-4-yl-pyridin-3-yl)-3,3-dimethylbutyramide]
% Choice of the large but delayed reward on Drug sessions ([3]; 2.5 mg/kg s.c. 30 min before the test): 25.0 ± 6.7 % | % Choice of the large but delayed reward on Control sessions [3]: 8.3 ± 2.8% | % of time Aggressive behaviour [1, 4]: 5.9 % of time | % of time Defensive behaviour [1, 4]: 8.5 % of time | % of time Friendly behaviour [1, 4]: 20.2 % of time | % of time Non-social behaviour [1, 4]: 65.4 % of time | % of time Agonistic behaviour [1, 4]: 14.4 % of time | % of time Aggressive behaviour [1, 5]: 0.1** % of time | % of time Defensive behaviour [1, 5]: 0.0*** % of time | % of time Friendly behaviour [1, 5]: 20.0 % of time | % of time Non-social behaviour [1, 5]: 79.9*** % of time | % of time Agonistic behaviour [1, 5]: 0.1*** % of time | % of time Aggressive behaviour [2, 4]: 12.0 % of time | % of time Defensive behaviour [2, 4]: 12.3 % of time | % of time Friendly behaviour [2, 4]: 3.4 % of time | % of time Non-social behaviour [2, 4]: 72.3 % of time | % of time Agonistic behaviour [2, 4]: 24.3 % of time | % of time Aggressive behaviour [2, 5]: 0.2*** % of time | % of time Defensive behaviour [2, 5]: 0.2*** % of time | % of time Friendly behaviour [2, 5]: 2.3 % of time | % of time Non-social behaviour [2, 5]: 97.4*** % of time | % of time Agonistic behaviour [2, 5]: 0.3*** % of time
